Test results: patent US8415357B2 (Canbas Co., Ltd., priority 2007, dated 2013)

System: Jurkat cells
Test: Adaptation to G2 cell cycle arrest (G1 increment) in X-ray pre-arrested Jurkat cells, flow cytometry
Type: cell-based, human
Conditions: Homo sapiens, Jurkat, 24 h, Table 1; concentration causing half-maximal increase of % cells in G1 phase (G1 increment); Jurkat pre-arrested by 10 Gy X-ray, 24 hours with compound
Procedure: Phenotype-based screening was used to measure the ability of compounds of the invention to cause adaptation to G2 cell cycle arrest in G2-arrested cells. Adaptation to G2 cell cycle arrest and re-entry into the cell cycle can result in death of the previously G2-arrested cell, or suppression (inhibition) of further proliferation of the previously G2-arrested cell. In a non-limiting embodiment, the ability to cause adaptation to G2 cell cycle arrest was measured by contacting cells in which G2 arrest had been induced by irradiation (e.g., gamma (γ) radiation or X-ray radiation), with compounds of the invention at various concentrations and, for each compound at each concentration, determining the percentage of cells that escaped G2 arrest and re-entered the cell cycle, by determining the percentage of cells in G1 phase. The IC50 value for each compound was calculated as the dosage (usually in μM) that caused half-maximal increase of the percentage of cells in G1 phase (the G1 increment) measured for that compound. Certain invention compounds were initially identified by phenotype-based screening of small molecule libraries for activity against G2-arrested cells as described above.
Jurkat cells (a human T cell lymphoma-derived cell line) were arrested at the G2 phase by X-ray irradiation at 10 Gy, and cultured for 24 hours in 10% fetal calf serum (FCS)/RPMI1640 at 37° C. with 5% CO2/air. (FCS was from Equitech-Bio, Kerrville, Tex., and RPMI1640 was from Sigma-Aldrich, St. Louis, Mo.) Test compounds were added to the medium at the indicated doses, and the cells were cultured under the conditions described above, for an additional 24 hours before harvesting.
Harvested cells were stained with Krishan's buffer (0.1% sodium citrate, 50 μg/ml propidium iodide, 20 μg/ml RNase A, 0.5% Nonidet P-40) and analyzed by flow cytometry (BD Biosciences, Franklin Lakes, N.J.) to identify the cell stage of each cell in the sample. Cells in G1 phase were identified by having […] (2N) DNA content.
The IC50 value for each compound was calculated as the dosage showing half maximal activity to induce the increase of the percentage of cells in G1 phase (the G1 increment). IC50 values were used to measure the activity of compounds and to determine structure-activity relationships.
Pre-arrested Jurkat cells were prepared as described in Example 1. Briefly, Jurkat cells were subjected to X-ray irradiation at a dose of 10 Gy, and cultured for 24 hours in 10% fetal calf serum (FCS)/RPMI1640 at 37° C. with 5% CO2/air, after which time cells were exposed to various concentrations of test compounds, and cultured under the conditions described above for an additional 24 hours before harvesting. Harvested cells were stained with Krishan's buffer (0.1% sodium citrate, 50 μg/ml propidium iodide, 20 μg/ml RNase A, 0.5% Nonidet P-40) and analyzed by flow cytometry (BD Biosciences, Franklin Lakes, N.J.) to identify the cell stage of each cell in the sample. Cells in G1 phase were identified by having […] (2N) DNA content.
The IC50 value for each compound was calculated as the dosage (concentration in μM) that caused half-maximal increase of the percentage of cells in G1 phase (the G1 increment) measured for that test compound. Table 1 below presents the structure, mass, 1H NMR values, and […] values for representative compounds.
The IC50 value for each compound was calculated as the dosage (concentration in μM) that caused half-maximal increase of the percentage of cells in G1 phase (the G1 increment) measured for that test compound. Table 2 below presents structures, IUPAC name, molecular formula, ID number (“SCID”), mass, 1H NMR values, and IC50 values for representative compounds. Table 3 presents structures, IUPAC name, molecular formula, ID number (“SCID”), mass, 1H NMR values, and IC50 values for further representative compounds.

| SMILES | IC50 |
| --- | --- |
| CC1=C(C)C(=O)N(Nc2cc(C(F)(F)F)cc(C)n2)C1=O [Compound S00069] | 5 µM |
| CC1=C(C)C(=O)N(Nc2ccc(C(F)(F)F)cn2)C1=O [Compound S00073] | 2.5 µM |
| CC1=C(C)C(=O)N(N(C)c2cc(C(F)(F)F)cc(C)n2)C1=O [Compound S00084] | 5 µM |
| CC1=C(C)C(=O)N(Cc2ccc(C(F)(F)F)cc2)C1=O [Compound S00088] | 10 µM |
| CC1=C(C)C(=O)N(Nc2nc(Cl)ccc2C(F)(F)F)C1=O [Compound S00108] | 20 µM |
| CC1=C(C)C(=O)N(Cc2ccc(C(F)(F)F)cn2)C1=O [Compound S00110] | 60 µM |
| CC1C(=O)N(Nc2ccc(C(F)(F)F)cn2)C(=O)C1Sc1ccccc1 (stereo not shown) [Compound S00145] | 30 µM |
| CC1=C(C)C(=O)N(N(C)c2ccc(C(F)(F)F)c(Cl)n2)C1=O [Compound S00170] | 0.12 µM |
| O=C1C2=C(CCCC2)C(=O)N1Nc1ccc(C(F)(F)F)c(Cl)n1 [Compound S00186, 2-{[6-chloro-5-(trifluoromethyl)-2-pyridyl]amino}-4,5,6,7-tetrahydroisoindole-1,3-dione] | 0.63 µM |
| O=C1C2=C(CCCC2)C(=O)N1Nc1ccc(C(F)(F)F)cn1 [Compound S00200] | 5 µM |
| CC1=C(C)C(=O)N(Cc2ccc(Cl)c(C(F)(F)F)c2)C1=O [Compound S00201] | 10 µM |
| CC1=C(c2ccccc2)C(=O)N(Nc2ccc(C(F)(F)F)c(Cl)n2)C1=O [Compound S00257] | 10 µM |
| CC1=C(C)C(=O)N(Nc2ccc(C)cc2C)C1=O [Compound S00294] | 5 µM |
| CC1=C(C)C(=O)N(Nc2nc3ccccc3s2)C1=O [Compound S00295] | 5 µM |
| CC1=C(C)C(=O)N(Nc2cccc(C(F)(F)F)c2)C1=O [Compound S00305] | 5 µM |
| CC1=C(C)C(=O)N(Nc2cc(Cl)ccc2C)C1=O [Compound S00319] | 10 µM |
| CC1=CC(=O)N(Nc2ccc(C(F)(F)F)c(Cl)n2)C1=O [Compound S00333] | 15 µM |
| CC1=C(C)C(=O)N(Nc2ccc3ccccc3n2)C1=O [Compound S00362] | 5 µM |
| CC1=C(C)C(=O)N(Nc2ccc(Cl)c(C(F)(F)F)c2)C1=O [Compound S00405] | 2.5 µM |
| O=C1C(Cl)=C(Cl)C(=O)N1Nc1cccc(C(F)(F)F)c1 [Compound S00406] | 80 µM |
| CC1=C(C)C(=O)N(Cc2ccc(C(F)(F)F)cc2Cl)C1=O [Compound S00408] | 10 µM |
| O=C1C(Cl)=C(Cl)C(=O)N1Cc1ccc(C(F)(F)F)cc1 [Compound S00409] | 20 µM |
| COC1=C(C)C(=O)N(Cc2ccc(C(F)(F)F)cc2)C1=O [Compound S00410] | 10 µM |
| CC1=C(C)C(=O)N(Cc2ccc(C(F)(F)F)c(F)c2)C1=O [Compound S00412] | 10 µM |
| COc1nc(NN2C(=O)C(C)=C(C)C2=O)ccc1C(F)(F)F [Compound S00451] | 60 µM |
| CC1=C(C)C(=O)N(Nc2ccc(C)c(C)c2)C1=O [Compound S00452] | 10 µM |
| CC1=C(C)C(=O)N(Nc2nc3ccc(F)cc3s2)C1=O [Compound S00454] | 4 µM |
| CC1=C(C)C(=O)N(Nc2cc(Cl)cc(Cl)c2)C1=O [Compound S00456] | 2.5 µM |
| CC1=C(C)C(=O)N(Nc2cc(C(F)(F)F)cc(C(F)(F)F)c2)C1=O [Compound S00474] | 2.5 µM |
| CC1=C(C)C(=O)N(Nc2cccc3ccccc23)C1=O [Compound S00475] | 3.75 µM |

The remaining lines, values ahead:

| IC50 | SMILES |
| --- | --- |
| 2.5 µM | CC1=C(C)C(=O)N(Nc2ccc(C(C)(C)C)cc2)C1=O [Compound S00479] |
| 5 µM | CSCc1cc(C(F)(F)F)ccc1NN1C(=O)C(C)=C(C)C1=O [Compound S00499] |
| 5 µM | CC1=C(C)C(=O)N(Nc2cc(C(F)(F)F)ccc2C)C1=O [Compound S00512] |
| 5 µM | CC1=C(C)C(=O)N(Cc2ccc(C(F)(F)F)c(Cl)c2)C1=O [Compound S00513] |
| 20 µM | CC1=C(C)C(=O)N(Nc2ccc(-c3ccccc3)cc2)C1=O [Compound S00515] |
| 1.25 µM | CC1=C(C)C(=O)N(Nc2ccc(Br)c(C(F)(F)F)c2)C1=O [Compound S00516, 1-{[4-bromo-3-(trifluoromethyl)phenyl]amino}-3,4-dimethylazoline-2,5-dione] |
| 60 µM | CC1=C(C)C(=O)N(C(C)c2ccc(Br)cc2)C1=O (stereo not shown) [Compound S00543] |
| 0.45 µM | CC1=C(C)C(=O)N(Nc2ccc3cccc(Cl)c3n2)C1=O [Compound S00585, 1-[(8-chloro(2-quinolyl))amino]-3,4-dimethylazoline-2,5-dione] |
| 2.5 µM | CC1=C(C)C(=O)N(N(C)c2cc(Cl)cc(Cl)c2)C1=O [Compound S00587] |
| 5 µM | CC1=C(C)C(=O)N(Nc2nc3ccc(Cl)cc3s2)C1=O [Compound S00590] |
| 5 µM | CC1=C(C)C(=O)N(Nc2ccc3cc(Cl)ccc3n2)C1=O [Compound S00622] |
| 10 µM | CC1=C(C)C(=O)N(Nc2cc(C(F)(F)F)ccc2Br)C1=O [Compound S00623] |
| 10 µM | CC1=C(C)C(=O)N(Nc2ccc(C(F)(F)F)cc2Br)C1=O [Compound S00624] |
| 2 µM | CC1=C(C)C(=O)N(Nc2cccc(C(C)(C)C)c2)C1=O [Compound S00627] |
| 60 µM | CC1=C(C)C(=O)N(Oc2ccc(C)cc2)C1=O [Compound S00628] |
| 10 µM | CC1=C(C)C(=O)N(Nc2cc(C(C)(C)C)ccc2Br)C1=O [Compound S00649] |
| 10 µM | CC1=C(C)C(=O)N(Nc2ccc3ccccc3c2)C1=O [Compound S00651] |
| 60 µM | CC1=C(C)C(=O)N(N2CCc3cc(C)ccc32)C1=O [Compound S00662] |
| 40 µM | CC1=C(C)C(=O)N(n2ccc3cc(C)ccc32)C1=O [Compound S00663] |
| 2.5 µM | CC1=C(C)C(=O)N(Nc2ccc(C)c(C(F)(F)F)c2)C1=O [Compound S00697] |
| 5 µM | CC1=C(C)C(=O)N(Nc2ccc3c(c2)C(C)(C)CCC3(C)C)C1=O [Compound S00698] |
| 10 µM | CC1=C(C)C(=O)N(Nc2ccc(C(F)(F)F)cc2Cl)C1=O [Compound S00699] |
| 0.63 µM | CC1=C(C)C(=O)N(Nc2ccc(Cl)c3ccccc23)C1=O [Compound S00738, 1-[(4-chloronaphthyl)amino]-3,4-dimethylazoline-2,5-dione] |
| 1.25 µM | CC1=C(C)C(=O)N(Nc2nc3c(Cl)cccc3s2)C1=O [Compound S00756] |

Same assay, conditions: Homo sapiens, Jurkat, 24 h, Table 2; concentration causing half-maximal increase of % cells in G1 phase (G1 increment); Jurkat pre-arrested by 10 Gy X-ray, 24 hours with compound

| SMILES | IC50 |
| --- | --- |
| CC1=C(C)C(=O)N(N(C)c2ccc(C(F)(F)F)c(Cl)n2)C1=O [Compound S00170] | 0.12 µM |
| O=C1C2=C(CCCC2)C(=O)N1Nc1ccc(C(F)(F)F)c(Cl)n1 [Compound S00186, 2-{[6-chloro-5-(trifluoromethyl)-2-pyridyl]amino}-4,5,6,7-tetrahydroisoindole-1,3-dione] | 0.625 µM |

Continued, values first:

| IC50 | SMILES |
| --- | --- |
| 0.625 µM | CC1=C(C)C(=O)N(Nc2ccc(Br)c(C(F)(F)F)c2)C1=O [Compound S00516, 1-{[4-bromo-3-(trifluoromethyl)phenyl]amino}-3,4-dimethylazoline-2,5-dione] |
| 0.3 µM | CC1=C(C)C(=O)N(Nc2ccc3cccc(Cl)c3n2)C1=O [Compound S00585, 1-[(8-chloro(2-quinolyl))amino]-3,4-dimethylazoline-2,5-dione] |
| 0.625 µM | CC1=C(C)C(=O)N(Nc2ccc(Cl)c3ccccc23)C1=O [Compound S00738, 1-[(4-chloronaphthyl)amino]-3,4-dimethylazoline-2,5-dione] |
| 0.3 µM | CC1=C(C)C(=O)N(Nc2cc(Cl)c(Cl)c(Cl)c2)C1=O [Compound S00832, 3,4-dimethyl-1-[(3,4,5-trichlorophenyl)amino]azoline-2,5-dione] |
| 0.625 µM | CC1=C(C)C(=O)N(Nc2cc(Cl)c3cccc(C)c3n2)C1=O [Compound S00871, 1-[(4-chloro-8-methyl(2-quinolyl))amino]-3,4-dimethylazoline-2,5-dione] |
| 0.3 µM | CC1=C(C)C(=O)N(Nc2cc(C(F)(F)F)c3ccccc3n2)C1=O [Compound S00873, 3,4-dimethyl-1-{[4-(trifluoromethyl)(2-quinolyl)]amino}azoline-2,5-dione] |
| 0.625 µM | CC1=C(C)C(=O)N(Nc2cc(Cl)c3cc(C)ccc3n2)C1=O [Compound S00935, 1-[(4-chloro-6-methyl(2-quinolyl))amino]-3,4-dimethylazoline-2,5-dione] |
| 0.625 µM | CC1=C(C)C(=O)N(Nc2ccc(Br)c3ccccc23)C1=O [Compound S00942, 1-[(4-bromonaphthyl)amino]-3,4-dimethylazoline-2,5-dione] |
